Data: ChEMBL document CHEMBL3774361, “Synthesis and evaluation of thieno[2,3-d]pyrimidin-4(3H)-ones as potential antitubercular agents” (Medchemcomm, 2015)
≈ marks a conversion by molar mass, not a printed value.

What was measured:
[1] = Selectivity index, ratio of GI50 for human THP1 cells to MIC90 for active stage of Mycobacterium bovis BCG ATCC 35743; type: toxicity, cell-based, THP-1; settings: read-out: Selectivity Index
[2] = Selectivity index, ratio of GI50 for human THP1 cells to MIC90 for active stage of Mycobacterium tuberculosis H37Ra; type: toxicity, cell-based, THP-1; settings: read-out: Selectivity Index
[3] = Selectivity index, ratio of GI50 for human HCT116 cells to MIC90 for active stage of Mycobacterium bovis BCG ATCC 35743; type: toxicity, cell-based, HCT-116; settings: read-out: Selectivity Index
[4] = Selectivity index, ratio of GI50 for human HCT116 cells to MIC90 for active stage of Mycobacterium tuberculosis H37Ra; type: toxicity, cell-based, HCT-116; settings: read-out: Selectivity Index
[5] = Selectivity index, ratio of GI50 for human A549 cells to MIC90 for active stage of Mycobacterium bovis BCG ATCC 35743; type: toxicity, cell-based; settings: read-out: Selectivity Index
[6] = Selectivity index, ratio of GI50 for human A549 cells to MIC90 for active stage of Mycobacterium tuberculosis H37Ra; type: toxicity, cell-based; settings: read-out: Selectivity Index
[7] = Selectivity index, ratio of GI50 for human MCF7 cells to MIC90 for active stage of Mycobacterium bovis BCG ATCC 35743; type: toxicity, cell-based; settings: read-out: Selectivity Index
[8] = Selectivity index, ratio of GI50 for human MCF7 cells to MIC90 for active stage of Mycobacterium tuberculosis H37Ra; type: toxicity, cell-based; settings: read-out: Selectivity Index
[9] = Cytotoxicity against human THP1 cells incubated for 1 to 11 days by MTT assay; type: cell-based, THP-1
[10] = Cytotoxicity against human HCT116 cells incubated for 1 to 11 days by MTT assay; type: cell-based, HCT-116
[11] = system: Mycobacterium tuberculosis; assay: Antitubercular activity against active stage of Mycobacterium tuberculosis H37Ra assessed as cell viability after 8 days by XTT reduction menadione assay; type: functional; settings: 192 h
[12] = system: Mycobacterium tuberculosis; assay: Antitubercular activity against dormant stage of Mycobacterium tuberculosis H37Ra assessed as cell viability after 12 days by XTT reduction menadione assay; type: functional; settings: 288 h
[13] = Antibacterial activity against active stage of Mycobacterium bovis BCG ATCC 35743 assessed as cell viability after 8 days by nitrate reductase assay; type: functional, Mycobacterium bovis BCG str. ATCC 35743; settings: Mycobacterium tuberculosis variant bovis BCG, ATCC 35743, 192 h
[14] = Antibacterial activity against dormant stage of Mycobacterium bovis BCG ATCC 35743 assessed as cell viability after 12 days by nitrate reductase assay; type: functional, Mycobacterium bovis BCG str. ATCC 35743; settings: Mycobacterium tuberculosis variant bovis BCG, ATCC 35743, 288 h
[15] = Cytotoxicity against human MCF7 cells incubated for 1 to 11 days by MTT assay; type: cell-based
[16] = (§1) Cytotoxicity against human A549 cells incubated for 1 to 11 days by MTT assay; type: cell-based; settings: A549 cells
A549 = assay: as §1; type: cell-based; settings: a549

CCCCCn1cnc2sc(CC)cc2c1=O
selectivity ratio [1]: 10
selectivity ratio [2]: 2
selectivity ratio [3]: 10
selectivity ratio [4]: 2
selectivity ratio [5]: > 10
selectivity ratio [6]: 2
selectivity ratio [7]: > 10
selectivity ratio [8]: 2
GI50 [9]: > 100 µg/mL
GI50 [10]: > 100 µg/mL
MIC90 [11]: 44.1 µg/mL
MIC90 [12]: 43.8 µg/mL (≈ 175 µM)
MIC90 [13]: 10.1 µg/mL (≈ 40.3 µM)
MIC90 [14]: 20.8 µg/mL (≈ 82.9 µM)
GI50 [15]: > 100 µg/mL
GI50 [16]: > 100 µg/mL

CCCCCCCc1cc2c(=O)n(CC3CC3)cnc2s1
selectivity ratio [1]: 66
selectivity ratio [2]: 2
selectivity ratio [3]: 66
selectivity ratio [4]: 2
selectivity ratio [5]: > 66
selectivity ratio [6]: 2
selectivity ratio [7]: > 66
selectivity ratio [8]: 2
GI50 [9]: > 100 µg/mL
GI50 [10]: > 100 µg/mL
MIC90 [11]: 49.3 µg/mL
MIC90 [12]: 49.1 µg/mL (≈ 161 µM)
MIC90 [13]: 1.52 µg/mL (≈ 4.99 µM)
MIC90 [14]: 2.01 µg/mL (≈ 6.6 µM)
GI50 [15]: > 100 µg/mL
GI50 [16]: > 100 µg/mL

CCCCCCCc1cc2c(=O)n(CCN=[N+]=[N-])cnc2s1
selectivity ratio [1]: 77
selectivity ratio [2]: 48
selectivity ratio [3]: 77
selectivity ratio [4]: 48
selectivity ratio [5]: > 77
selectivity ratio [6]: 48
selectivity ratio [7]: > 77
selectivity ratio [8]: 48
GI50 [9]: > 100 µg/mL
GI50 [10]: > 100 µg/mL
MIC90 [11]: 6.5 µM
MIC90 [12]: 8.33 µg/mL (≈ 26.1 µM)
MIC90 [13]: 1.3 µg/mL (≈ 4.07 µM)
MIC90 [14]: 2.26 µg/mL (≈ 7.08 µM)
GI50 [15]: > 100 µg/mL
GI50 [16]: > 100 µg/mL

CCCCCCCCCCc1cc2c(=O)n(CCO)cnc2s1
selectivity ratio [1]: 5
selectivity ratio [2]: 15
selectivity ratio [3]: 5
selectivity ratio [4]: 15
selectivity ratio [5]: > 5
selectivity ratio [6]: 15
selectivity ratio [7]: > 5
selectivity ratio [8]: 15
GI50 [9]: > 100 µg/mL
GI50 [10]: > 100 µg/mL
MIC90 [11]: 6.7 µg/mL
MIC90 [12]: 15 µg/mL (≈ 44.6 µM)
MIC90 [13]: 21.4 µg/mL (≈ 63.7 µM)
MIC90 [14]: 23.4 µg/mL (≈ 69.6 µM)
GI50 [15]: > 100 µg/mL
GI50 [16]: > 100 µg/mL

CCCCCCCc1cc2c(=O)n(CC#N)cnc2s1
selectivity ratio [1]: 53
selectivity ratio [2]: 40
selectivity ratio [3]: 53
selectivity ratio [4]: 40
selectivity ratio [5]: > 53
selectivity ratio [6]: 40
selectivity ratio [7]: > 53
selectivity ratio [8]: 40
GI50 [9]: > 100 µg/mL
GI50 [10]: > 100 µg/mL
MIC90 [11]: 8.68 µM
MIC90 [12]: 5.2 µg/mL (≈ 18 µM)
MIC90 [13]: 1.89 µg/mL (≈ 6.53 µM)
MIC90 [14]: 3.02 µg/mL (≈ 10.4 µM)
GI50 [15]: > 100 µg/mL
GI50 [16]: > 100 µg/mL

CCCCCCCc1cc2c(=O)n(CCCBr)cnc2s1
selectivity ratio [1]: 16
selectivity ratio [2]: 6
selectivity ratio [3]: 16
selectivity ratio [4]: 6
selectivity ratio [5]: 5
selectivity ratio [6]: 2
selectivity ratio [7]: 3
selectivity ratio [8]: 1
GI50 [9]: > 100 µg/mL
GI50 [10]: > 100 µg/mL
MIC90 [11]: 17.5 µg/mL
MIC90 [12]: 18.5 µg/mL (≈ 49.8 µM)
MIC90 [13]: 6.3 µg/mL (≈ 17 µM)
MIC90 [14]: 9.37 µg/mL (≈ 25.2 µM)
GI50 [15]: 19.7 µg/mL (≈ 53 µM)
GI50 [16]: 34.1 µg/mL (≈ 92 µM)

CCCCCCc1cc2c(=O)n(CCN=[N+]=[N-])cnc2s1
selectivity ratio [1]: 25
selectivity ratio [2]: 12
selectivity ratio [3]: 4
selectivity ratio [4]: 2
selectivity ratio [5]: 4
selectivity ratio [6]: 2
selectivity ratio [7]: > 25
selectivity ratio [8]: 12
GI50 [9]: > 100 µg/mL
GI50 [10]: 14.7 µg/mL (≈ 48.1 µM)
MIC90 [11]: 8.42 µg/mL
MIC90 [12]: 11.5 µg/mL (≈ 37.8 µM)
MIC90 [13]: 4.08 µg/mL (≈ 13.4 µM)
MIC90 [14]: 4.51 µg/mL (≈ 14.8 µM)
GI50 [15]: > 100 µg/mL
GI50 [16]: 16.2 µg/mL (≈ 52.9 µM)
GI90 (A549): 74.66 µg/mL (≈ 244 µM)

CCCCCc1cc2c(=O)n(CCC)cnc2s1
selectivity ratio [1]: 12
selectivity ratio [2]: 2
selectivity ratio [3]: 12
selectivity ratio [4]: 2
selectivity ratio [5]: 3
selectivity ratio [6]: 1
selectivity ratio [7]: 4
selectivity ratio [8]: 1
GI50 [9]: > 100 µg/mL
GI50 [10]: > 100 µg/mL
MIC90 [11]: 42.9 µg/mL
MIC90 [12]: 36.3 µg/mL (≈ 137 µM)
MIC90 [13]: 8.51 µg/mL (≈ 32.2 µM)
MIC90 [14]: 9.82 µg/mL (≈ 37.1 µM)
GI50 [15]: 33.8 µg/mL (≈ 128 µM)
GI50 [16]: 27.4 µg/mL (≈ 103 µM)

C=CCCCCCCCc1cc2c(=O)n(CCBr)cnc2s1
selectivity ratio [1]: 41
selectivity ratio [2]: 29
selectivity ratio [3]: 18
selectivity ratio [4]: 12
selectivity ratio [5]: 19
selectivity ratio [6]: 13
selectivity ratio [7]: 11
selectivity ratio [8]: 7
GI50 [9]: > 100 µg/mL
GI50 [10]: 42.4 µg/mL (≈ 111 µM)
MIC90 [11]: 3.5 µg/mL
MIC90 [12]: 6.31 µg/mL (≈ 16.5 µM)
MIC90 [13]: 2.42 µg/mL (≈ 6.31 µM)
MIC90 [14]: 1.4 µg/mL (≈ 3.65 µM)
GI50 [15]: 26.1 µg/mL (≈ 68.1 µM)
GI50 [16]: 45.4 µg/mL (≈ 119 µM)

CCCCCc1cc2c(=O)n(CC3CC3)cnc2s1
selectivity ratio [1]: 20
selectivity ratio [2]: 3
selectivity ratio [3]: 20
selectivity ratio [4]: 3
selectivity ratio [5]: > 20
selectivity ratio [6]: 3
selectivity ratio [7]: > 20
selectivity ratio [8]: 3
GI50 [9]: > 100 µg/mL
GI50 [10]: > 100 µg/mL
MIC90 [11]: 38.3 µg/mL
MIC90 [12]: > 50 µg/mL
MIC90 [13]: 4.95 µg/mL (≈ 17.9 µM)
MIC90 [14]: 8.07 µg/mL (≈ 29.2 µM)
GI50 [15]: > 100 µg/mL
GI50 [16]: > 100 µg/mL

CCCCCCCCCCc1cc2c(=O)n(CCBr)cnc2s1
selectivity ratio [1]: 44
selectivity ratio [2]: 4
selectivity ratio [3]: 44
selectivity ratio [4]: 4
selectivity ratio [5]: 15
selectivity ratio [6]: 1
selectivity ratio [7]: 9
selectivity ratio [8]: 1
GI50 [9]: > 100 µg/mL
GI50 [10]: > 100 µg/mL
MIC90 [11]: 24.6 µg/mL
MIC90 [12]: 35.2 µg/mL (≈ 88.2 µM)
MIC90 [13]: 2.29 µg/mL (≈ 5.73 µM)
MIC90 [14]: 3.35 µg/mL (≈ 8.39 µM)
GI50 [15]: 20.5 µg/mL (≈ 51.4 µM)
GI50 [16]: 35.1 µg/mL (≈ 87.8 µM)

CCCCCCc1cc2c(=O)n(CC3CC3)cnc2s1
selectivity ratio [1]: 73
selectivity ratio [2]: 2
selectivity ratio [3]: 13
selectivity ratio [5]: > 73
selectivity ratio [6]: 2
selectivity ratio [7]: 18
selectivity ratio [8]: 1
GI50 [9]: > 100 µg/mL
GI50 [10]: 17.6 µg/mL (≈ 60.7 µM)
MIC90 [11]: 45.9 µg/mL
MIC90 [12]: 42.7 µg/mL (≈ 147 µM)
MIC90 [13]: 1.37 µg/mL (≈ 4.72 µM)
MIC90 [14]: 2.34 µg/mL (≈ 8.06 µM)
GI50 [15]: 24.8 µg/mL (≈ 85.5 µM)
GI50 [16]: > 100 µg/mL

CC(=O)O[C@H]1C(=O)[C@@]2(C)[C@H]([C@H](OC(=O)c3ccccc3)[C@]3(O)C[C@H](OC(=O)[C@H](O)[C@@H](NC(=O)c4ccccc4)c4ccccc4)C(C)=C1C3(C)C)[C@]1(OC(C)=O)CO[C@@H]1C[C@@H]2O [PACLITAXEL]
GI50 [9]: 0.137 µg/mL (≈ 0.161 µM)
GI50 [10]: 0.026 µg/mL (≈ 0.0304 µM)
GI50 [15]: 0.0048 µg/mL (≈ 0.00562 µM)

CO[C@H]1/C=C/O[C@@]2(C)Oc3c(C)c(O)c4c(O)c(c(/C=N/N5CCN(C)CC5)c(O)c4c3C2=O)NC(=O)/C(C)=C\C=C\[C@H](C)[C@H](O)[C@@H](C)[C@@H](O)[C@@H](C)[C@H](OC(C)=O)[C@@H]1C [RIFAMPIN]
selectivity ratio [1]: 222
selectivity ratio [2]: 196
selectivity ratio [3]: 222
selectivity ratio [4]: 196
selectivity ratio [6]: 196
selectivity ratio [8]: 196
GI50 [9]: > 100 µg/mL
GI50 [10]: > 100 µg/mL
MIC90 [11]: 0.51 µg/mL
MIC90 [12]: 0.75 µg/mL (≈ 0.911 µM)
MIC90 [13]: 0.45 µg/mL (≈ 0.547 µM)
MIC90 [14]: 0.81 µg/mL (≈ 0.984 µM)
GI50 [15]: > 100 µg/mL
GI50 [16]: > 100 µg/mL
